Assay results: patent US20140037685A1 (priority 2012, published 2014)
Entries after “also recorded” stand apart in the source; their conditions may differ.

How the values were obtained:
macrophages = assay: Confocal microscopy of lysosome rupture (fluorescent dextran) and plasma membrane integrity; assay type: cell-based, mouse
Method: (§1) FIG. 5A-5C. Lysosome rupture precedes cell death by alum and LLOMe, but not pyroptosis inducers. (A) Confocal microscopy of lysosome rupture in macrophages treated with […], 2.5 mM LLOMe, or 15 μM nigericin in the absence or presence of 100 μM CA-074-Me. The cells were stained with Hoechst (blue), 20 MW FITC-Dextran (green), CellMask Orange (red), TO-PRO-3 (white). 2D-fluorescent intensity plots of FITC-dextran staining of representative cells derived from alum, LLOMe, and nigericin-treated cells. Flow cytometry analysis of LLOMe and LT-treated cells. BALB/c-derived macrophages were exposed to 2.5 mM LLOMe (B) or 500 ng/ml LT (C) and lysosome and membrane integrity were measured using LysoTracker and PI at different time points using flow cytometry.
Cathepsin-dependent lysosome rupture correlates with degradation of inflammatory proteins. […] Lysosome-disrupting agents caused caspase-1-independent cell death and broad protein degradation, while pyroptosis inducers caused caspase-1-dependent cell death and targeted IL-1β secretion. In order to directly investigate the role of lysosome rupture in Nlrp3 activation, two complementary methods were used to analyze lysosome integrity in macrophages challenged with both lysosome-destabilizing agents and potassium-efflux inducers. First, lysosomal integrity was measured by labeling vesicles in the endolysosomal pathway with fluorescent dextran. […] Intriguingly, no plasma membrane impairment (indicative of necrotic cell death) was detectable at this time point, but was observed only 6 hours post alum exposure (FIG. 5A). […] LLOMe destabilized lysosomes within 30 min, without impairment of plasma membranes. A loss of plasma membrane integrity was observed only after 60 min of LLOMe exposure, resulting in dextran release from these cells (FIG. 5A).

[1] = test system: bone marrow-derived murine macrophages; assay: Necrotic cell death (LDH release / propidium iodide exclusion) in macrophages; assay type: cell-based, mouse
Method: (§2) FIG. 1A-1B. Alum and LLOMe are poor inducers of inflammasome-associated cytokines. […] Macrophages were then exposed to increasing concentrations of alum, LLOMe, ATP, or nigericin for 4 hours, or alum for 6 hours, in the presence or absence of the 40 μM Boc-D-CMK or 100 μM CA-074-Me. IL-1β release was assessed by ELISA (A), and cell death was determined by CytotoxOne LDH activity assay (B) from supernatants. All PI measurements were taken in triplicate from representative experiment. FIG. 2. Alum and LLOMe cause depletion of caspase-1 and NLR-associated cytokines. […] Lysates were probed for pro-caspase-1, IL-18, and IL-1β, and supernatants were probed for IL-1β by immunoblotting. Data is representative of 3 experiments.
Cell death assays and ELISAs. Necrosis was assessed by two methods: LDH release assays and propidium iodide (PI) exclusion. PI exclusion assays were performed in a 96-well flat-bottom plate using phenol-red-free DMEM and added to wells to a final concentration 30 μM 10-min before the specified time point. Fluorescence was measured using a Victor 2 plate reader from Perkin Elmer. LDH release was determined using the CytotoxOne kit from Promega, according to the manufacturer's instructions. […] The enzymatic assay was developed until signal was obtained from a positive control (300 μM hydrogen peroxide) and the reaction was stopped and measured on a Victor 2 plate reader. IL-1β Ready-Set-Go ELISA kits were purchased from eBioscience and were performed according to manufacturer's recommendations. IL-1β concentration was determined at 1:1 and 1:10 to ensure linear range. […] ELISAs were read on a Victor 2 plate reader from Perkin Elmer.
Lysosome-disrupting agents induce potent cell death but poor IL-1β release. […] Towards this, bone marrow-derived murine macrophages were challenged with both lysosome disrupting and pyroptosis-inducing agents and measured the amount of IL-1β and LDH released into the supernatant as complementary read-outs for Nlrp3 activation. […]

[2] = test system: pro-caspase-1, IL-18, and IL-1β; assay type: cell-based, mouse
C57BL/6 macrophages [3] = assay: Increasing CA-074-Me concentrations in LLOMe- or nigericin-challenged macrophages (PI exclusion, immunoblot); assay type: cell-based, mouse
Nlrp3 [4] = assay: IL-1β release into macrophage supernatants by ELISA; assay type: cell-based, mouse; conditions: for Effect of inhibitor on IL-1β secretion/release by all inducers tested: inducers alum, LLOMe, ATP, nigericin, 40 μM Boc-D-CMK or 100 μM CA-074-Me
Method: as §2
FIG. 6A-6D. LPS triggers strong production of Th1 and Th2-associated IgG subtypes. IgG1 (A) and IgG2c (B) production in C57BL/6 mice 3 weeks after subcutaneous challenge with increasing amounts of LPS. (C) A combination of LPS and ATP triggers a strong IL-1β response in vitro and in vivo. Primary C57BL/6 macrophages were treated with 250 ng/ml LPS or PBS for 2 hours, followed by to 5 mM ATP in the presence or absence of the 40 μM Boc-D-CMK. IL-1β release was assessed by ELISA from supernatants. […] IL-1β production in the intraperitoneal lavage was determined by ELISA 30 min after ATP/PBS challenge.
Cell death assays and ELISAs. Necrosis was assessed by two methods: LDH release assays and propidium iodide (PI) exclusion. […] Fluorescence was measured using a Victor 2 plate reader from Perkin Elmer. LDH release was determined using the CytotoxOne kit from Promega, according to the manufacturer's instructions. […] The enzymatic assay was developed until signal was obtained from a positive control (300 μM hydrogen peroxide) and the reaction was stopped and measured on a Victor 2 plate reader. IL-1β Ready-Set-Go ELISA kits were purchased from eBioscience and were performed according to manufacturer's recommendations. IL-1β concentration was determined at 1:1 and 1:10 to ensure linear range. […] ELISAs were read on a Victor 2 plate reader from Perkin Elmer. […]

C57BL/6 mice = assay: IgG1 and IgG2c production after immunization of mice; assay type: in vivo, mouse; conditions: immunized C57BL/6 mice; LPS 3 weeks after subcutaneous challenge
Method: (§3) FIG. 6A-6D. LPS triggers strong production of Th1 and Th2-associated IgG subtypes. IgG1 (A) and IgG2c (B) production in C57BL/6 mice 3 weeks after subcutaneous challenge with increasing amounts of LPS. (C) A combination of LPS and ATP triggers a strong IL-1β response in vitro and in vivo. Primary C57BL/6 macrophages were treated with 250 ng/ml LPS or PBS for 2 hours, followed by to 5 mM ATP in the presence or absence of the 40 μM Boc-D-CMK. IL-1β release was assessed by ELISA from supernatants. (D) C57BL/6 mice were i.p. primed with 1 ug LPS or PBS for 2 hours, followed by i.p. challenge with 100 mM ATP or PBS. IL-1β production in the intraperitoneal lavage was determined by ELISA 30 min after ATP/PBS challenge.
It was sought to determine if this difference correlated with the observed difference in in vivo IL-1β activation. To test this hypothesis, C57BL/6 mice were immunized with alum, LLOMe, and LPS.

[5] = test system: BALB/c-derived macrophages; assay: Flow cytometry of lysosome and membrane integrity (LysoTracker and PI); assay type: cell-based, mouse
Method: as §1
To quantify these findings, lysosomal integrity was also analyzed by flow cytometry with the lysosomal pH-indicator LysoTracker and the vital stain propidium iodide (FIG. 5B and C). […] Intriguingly, protein degradation was concurrent with a loss of lysosome integrity 30 to 45 min after LLOMe exposure, and 4-6 hours after alum exposure (FIGS. 5A and 5B).

Nlrp3 [6] = assay: IL-1β and LDH in intraperitoneal lavage after i.p. challenge; assay type: in vivo, mouse; conditions: C57BL/6 mice, agent injected intraperitoneally (LPS: high concentrations), no ATP
Method: as §3
FIG. 11. Similar in vitro and in vivo profiles of LLOMe and LPS/ATP-treated macrophages. C57BL/6 mice were i.p. primed with 1 μg LPS or PBS for 2 hours, followed by i.p. challenge with 500 μl of PBS containing 100 mM ATP, 2 mM LLOMe, or PBS only. IL-1β production and LDH activity was determined from the intraperitoneal lavage by ELISA 30 min after challenge.
Prototypical Nlrp3 inducers trigger a strong IL-1β in vivo and production of Th1-specific antibodies in vivo. While the substantial difference in Nlrp3-signalling in vitro is shown, it was further chosen to investigate the ability of lysosome-disrupting agents and pyroptosis inducer to activate Nlrp3 in vivo. […]

C57BL/6 macrophages [7] = assay: 2D-DIGE of the cellular proteome of treated macrophages; assay type: cell-based, mouse; conditions: LPS-primed; 2.5 mM LLOMe or nigericin for 90 minutes
Description: FIG. 10. 2D-DIGE gel of proteins isolated from untreated, nigericin- and LLOMe-treated macrophages. […] Protein lysates from control, nigericin, and LLOMe treated cells were isolated, and subsequently labeled with Cy2, Cy3 and Cy5, respectively, and separated on a 2D-DIGE gel.
Broad protein degradation mediated by LLOMe—As lysosomal proteases are highly promiscuous, it was reasoned that alum- and LL-mediated lysosomal release of proteolytic proteins may not just degrade Nlrp3-associated proteins, but may also trigger degradation of a broad range of cytosolic proteins, and might go beyond the degradation of inflammatory proteins reported here. To examine effects of LLOMe on the cellular proteome, macrophages were challenged with these compounds and generated lysates. 2D-DIGE was used to determine the extent of damage inflicted in macrophages exposed to the lysosome-disrupting agent, LLOMe. […] These findings further highlight the different impact of lysosome-destabilizing agents and pyroptosis inducers on the cellular proteome on a macro-level.

[8] = LPS-primed macrophages, 40 μM Boc-D-CMK, LDH assay

Compound: CCCNC(=O)[C@H]1O[C@@H]1C(=O)N[C@H](C(=O)N1CCC[C@H]1C(=O)OC)[C@@H](C)CC [CA-074-Me]
- Effect of inhibitor on lysosomal release of dextran from alum and LLOMe-treated macrophages (macrophages; 100 μM CA-074-Me): blocked
- Effect of inhibitor on necrotic cell death mediated by all agents/inducers tested ([1]; alum, LLOMe, ATP, nigericin, 100 μM CA-074-Me): blocked necrosis
- Effect of inhibitor on alum and LLOMe-mediated drop/degradation of proinflammatory proteins [2]: prevented the drop; also recorded: blocked
- Effect of increasing inhibitor concentrations on cell death and drop in inflammatory proteins in LLOMe-treated macrophages (C57BL/6 macrophages [3]; 2.5 mM LLOMe, LPS-primed): blocked both, cell death and the drop in inflammatory proteins
- Effect of inhibitor (at concentrations that blocked cell death) on release of processed IL-1β by Nlrp3 inducers (C57BL/6 macrophages [3]; nigericin (and ATP), LPS-primed): prevented the release of processed IL-1β
- Effect of inhibitor on IL-1β secretion/release by all inducers tested (Nlrp3 [4]): blocked

Compound: COC(=O)[C@H](CC(C)C)NC(=O)[C@@H](N)CC(C)C [LLOMe, Leu-Leu-OMe]
- IgG1 / Th2 response (C57BL/6 mice): polarized IgG1
- IgG2c response (Th1) (C57BL/6 mice): little induction
- Time at which loss of plasma membrane integrity was observed (macrophages; 2.5 mM LLOMe): 60 min
- Time to destabilized lysosomes, without impairment of plasma membranes (macrophages; 2.5 mM LLOMe): ≤ 30 min
- Time to complete loss of lysosome integrity ([5]; 2.5 mM LLOMe, LysoTracker): ≤ 30 min
- Time at which necrotic cell death was observed ([5]; 2.5 mM LLOMe, PI): 60 to 90 min
- Time of protein degradation concurrent with loss of lysosome integrity ([5]; after LLOMe exposure): 30 to 45 min
- IL-1β release in vivo (Nlrp3 [6]): poor release
- LDH release in vivo (Nlrp3 [6]): significant release
- Cellular pro-caspase-1 levels [2]: significant depletion
- Cytosolic levels of IL-18 and IL-1β [2]: dramatic decrease
- Mature caspase-1 (p20) indicative of caspase-1 activation [2]: No mature caspase-1 (p20)
- Processing of pro-caspase-1 (p45) into p10 and p20 [2]: substantial depletion of p45 without generating the p20 or p10 subunits
- Release of mature IL-1β into the supernatant (immunoblot) [2]: no mature IL-1β
- Degradation of cellular proteins (2D-DIGE) (C57BL/6 macrophages [7]): broad degradation
- IL-1β release (Nlrp3 [4]; LPS-primed (250 ng/ml, 2 hours) murine macrophages challenged with the inducer, ELISA of supernatants): only minimal

Compound: CO[C@@H]1C[C@@H](C[C@H]2CC[C@H](C)[C@H]([C@@H](C)C(=O)O)O2)O[C@]2(O[C@](C)([C@H]3CC[C@@](C)([C@@H]4O[C@@H]([C@H]5O[C@@](O)(CO)[C@H](C)C[C@@H]5C)C[C@@H]4C)O3)C[C@H]2C)[C@@H]1C [nigericin, Nigericin]
- Timing of lysosome impairment relative to cell death (macrophages; nigericin-treated cells (FIG. 5A)): occurred only after cell death induction
- Processing of pro-caspase-1 (p45) into p10 and p20 [2]: minimal decrease of p45 with a notable increase of p20 or p10
- Caspase-1 activation and Nlrp3 signaling: mature IL-1β in the supernatant (C57BL/6 macrophages [3]; LPS-primed C57BL/6 macrophages (FIG. 4B)): triggered caspase-1 activation and Nlrp3 signaling
- Degradation of cellular proteins (2D-DIGE) (C57BL/6 macrophages [7]): did not trigger any apparent degradation

Compound: Boc-D-CMK
- Effect of inhibitor on alum and LLOMe-induced necrotic cell death [1, 8]: no impact
- Effect of inhibitor on cell death mediated by ATP and nigericin [1, 8]: prevented
- Effect of inhibitor on IL-1β secretion/release by all inducers tested (Nlrp3 [4]): blocked
